Reference: US11718604B2, “4-amino-6-(1,3-benzodioxole)picolinates and their use as herbicides” (Dow AgroSciences LLC, priority 2018, dated 2023)

Key:
Assay type in all cases: in vivo
[1] = tested on: IPOHE: ivyleaf morningglory (Ipomoea hederacea); assay: Post-emergent herbicidal test, ivyleaf morningglory; conditions: post-emergence, 336 h, 14 days after application, read-out: Visual Growth Reduction (%) 14 Days After Application IPOHE
Description: (§1) Post-Emergent Test: Seeds or nutlets of the desired test plant species were planted in Sun Gro Metro-Mix® 360 planting mixture, which typically has a pH of 6.0 to 6.8 and an organic matter content of about 30 percent, in plastic pots with a surface area of 64 square centimeters (cm^2). When required to ensure good germination and healthy plants, a fungicide treatment and/or other chemical or physical treatment was applied. The plants were grown for 7-21 d in a greenhouse with an approximate 15 h photoperiod which was maintained at about 23-29° C. during the day and 22-28° C. during the night. Nutrients and water were added on a regular basis and supplemental lighting was provided with overhead metal halide 1000-Watt lamps as necessary. The plants were employed for testing when they reached the first or second true leaf stage.
(§2) A weighed amount, determined by the highest rate to be tested, of each test compound was placed in a 25 mL glass vial and was dissolved in 4 mL of a 97:3 v/v mixture of acetone and DMSO to obtain concentrated stock solutions. […] The concentrated stock solutions obtained were diluted with 20 mL of an aqueous mixture containing acetone, water, isopropyl alcohol, DMSO, Atplus 411F crop oil concentrate, and Triton® X-155 surfactant in a 48.5:39:10:1.5:1.0:0.02 v/v ratio to obtain spray solutions containing the highest application rates. Additional application rates were obtained by serial dilution of 12 mL of the high rate solution into a solution containing 2 mL of a 97:3 v/v mixture of acetone and DMSO and 10 mL of an aqueous mixture containing acetone, water, isopropyl alcohol, DMSO, Atplus 411F crop oil concentrate, and Triton X-155 surfactant in a 48.5:39:10:1.5:1.0:0.02 v/v ratio to obtain ½×, ¼×, ⅛× and 1/16× rates of the high rate. Compound requirements are based upon a 12 mL application volume at a rate of 187 liters per hectare (L/ha). Formulated compounds were applied to the plant material with an overhead Mandel track sprayer equipped with 8002E nozzles calibrated to deliver 187 L/ha over an application area of 0.503 square meters at a spray height of 18 inches (43 cm) above the average plant canopy height. Control plants were sprayed in the same manner with the solvent blank.
(§3) The treated plants and control plants were placed in a greenhouse as described above and watered by subirrigation to prevent wash-off of the test compounds. After 14 d, the condition of the test plants as compared with that of the untreated plants was determined visually and scored on a scale of 0 to 100 percent where 0 corresponds to no injury and 100 corresponds to complete kill.

[2] = tested on: EPHHL: wild poinsettia (Euphorbia heterophylla); assay: Post-emergent herbicidal test, wild poinsettia; conditions: post-emergence, 336 h, 14 days after application, read-out: Visual Growth Reduction (%) 14 Days After Application EPHHL
Description: as §1, §2, §3

[3] = tested on: ABUTH: velvetleaf (Abutilon theophrasti); assay: Post-emergent herbicidal test, velvetleaf; conditions: post-emergence, 336 h, 14 days after application, read-out: Visual Growth Reduction (%) 14 Days After Application ABUTH
Description: as §1, §2, §3

[4] = tested on: SETFA: giant foxtail (Setaria faberi); assay: Post-emergent herbicidal test, giant foxtail; conditions: post-emergence, 336 h, 14 days after application, read-out: Visual Growth Reduction (%) 14 Days After Application SETFA
Description: as §1, §2, §3

[5] = tested on: VIOTR: wild violet (Viola tricolor); assay: Post-emergent herbicidal test, wild violet; conditions: post-emergence, 336 h, 14 days after application, read-out: Visual Growth Reduction (%) 14 Days After Application VIOTR
Description: as §1, §2, §3

[6] = tested on: DIGSA: large crabgrass (Digitaria sanguinalis); assay: Post-emergent herbicidal test, large crabgrass; conditions: post-emergence, 336 h, 14 days after application, read-out: Visual Growth Reduction (%) 14 Days After Application DIGSA
Description: as §1, §2, §3

[7] = tested on: SORVU: shattercane (Sorghum bicolor); assay: Post-emergent herbicidal test, shattercane; conditions: post-emergence, 336 h, 14 days after application, read-out: Visual Growth Reduction (%) 14 Days After Application SORVU
Description: as §1, §2, §3

[8] = tested on: CIRAR: Canada thistle (Cirsium arvense); assay: Post-emergent herbicidal test, Canada thistle; conditions: post-emergence, 336 h, 14 days after application, read-out: Visual Growth Reduction (%) 14 Days After Application CIRAR
Description: as §1, §2, §3

[9] = tested on: ECHCG: barnyardgrass (Echinochloa crus-galli); assay: Post-emergent herbicidal test, barnyardgrass; conditions: post-emergence, 336 h, 14 days after application, read-out: Visual Growth Reduction (%) 14 Days After Application ECHCG
Description: as §1, §2, §3

[10] = tested on: BRSNN: oilseed rape, canola (Brassica napus); assay: Post-emergent herbicidal test, oilseed rape; conditions: post-emergence, 336 h, 14 days after application, read-out: Visual Growth Reduction (%) 14 Days After Application BRSNN
Description: as §1, §2, §3

[11] = tested on: CYPES: yellow nutsedge (Cyperus esculentus); assay: Post-emergent herbicidal test, yellow nutsedge; conditions: post-emergence, 336 h, 14 days after application, read-out: Visual Growth Reduction (%) 14 Days After Application CYPES
Description: as §1, §2, §3

## Nc1c(F)c(-c2ccc(Cl)c3c2OCO3)nc(C(=O)O)c1Cl [Compound 1, 4-amino-3-chloro-6-(7-chlorobenzo[d][1,3]dioxol-4-yl)-5-fluoropicolinic acid]
[1]; 17.5 g ai/ha
  pest or weed control at 17.5 g/ha: 0%
[1]; 35 g ai/ha
  pest or weed control at 35 g/ha: 0%
[1]; 70 g ai/ha
  pest or weed control at 70 g/ha: 10%
[1]; 140 g ai/ha
  pest or weed control at 140 g/ha: 15%
[2]; 17.5 g ai/ha
  pest or weed control at 17.5 g/ha: 0%
[2]; 35 g ai/ha
  pest or weed control at 35 g/ha: 0%
[2]; 70 g ai/ha
  pest or weed control at 70 g/ha: 5%
[2]; 140 g ai/ha
  pest or weed control at 140 g/ha: 15%
[3]; 17.5 g ai/ha
  pest or weed control at 17.5 g/ha: 80%
[3]; 35 g ai/ha
  pest or weed control at 35 g/ha: 85%
[3]; 70 g ai/ha
  pest or weed control at 70 g/ha: 90%
[3]; 140 g ai/ha
  pest or weed control at 140 g/ha: 95%
[4]; 17.5 g ai/ha
  pest or weed control at 17.5 g/ha: 10%
[4]; 35 g ai/ha
  pest or weed control at 35 g/ha: 10%
[4]; 70 g ai/ha
  pest or weed control at 70 g/ha: 35%
[4]; 140 g ai/ha
  pest or weed control at 140 g/ha: 50%
[5]; 17.5 g ai/ha
  pest or weed control at 17.5 g/ha: 40%
[5]; 35 g ai/ha
  pest or weed control at 35 g/ha: 60%
[5]; 70 g ai/ha
  pest or weed control at 70 g/ha: 70%
[5]; 140 g ai/ha
  pest or weed control at 140 g/ha: 95%
[6]; 17.5 g ai/ha
  pest or weed control at 17.5 g/ha: 0%
[6]; 35 g ai/ha
  pest or weed control at 35 g/ha: 20%
[6]; 70 g ai/ha
  pest or weed control at 70 g/ha: 30%
[6]; 140 g ai/ha
  pest or weed control at 140 g/ha: 50%
[7]; 17.5 g ai/ha
  pest or weed control at 17.5 g/ha: 35%
[7]; 35 g ai/ha
  pest or weed control at 35 g/ha: 35%
[7]; 70 g ai/ha
  pest or weed control at 70 g/ha: 50%
[7]; 140 g ai/ha
  pest or weed control at 140 g/ha: 60%
[8]; 17.5 g ai/ha
  pest or weed control at 17.5 g/ha: 85%
[8]; 35 g ai/ha
  pest or weed control at 35 g/ha: 85%
[8]; 70 g ai/ha
  pest or weed control at 70 g/ha: 95%
[8]; 140 g ai/ha
  pest or weed control at 140 g/ha: 90%
[9]; 17.5 g ai/ha
  pest or weed control at 17.5 g/ha: 0%
[9]; 35 g ai/ha
  pest or weed control at 35 g/ha: 0%
[9]; 70 g ai/ha
  pest or weed control at 70 g/ha: 30%
[9]; 140 g ai/ha
  pest or weed control at 140 g/ha: 40%
[10]; 17.5 g ai/ha
  pest or weed control at 17.5 g/ha: 55%
[10]; 35 g ai/ha
  pest or weed control at 35 g/ha: 100%
[10]; 70 g ai/ha
  pest or weed control at 70 g/ha: 100%
[10]; 140 g ai/ha
  pest or weed control at 140 g/ha: 100%
[11]; 17.5 g ai/ha
  pest or weed control at 17.5 g/ha: 35%
[11]; 35 g ai/ha
  pest or weed control at 35 g/ha: 40%
[11]; 70 g ai/ha
  pest or weed control at 70 g/ha: 80%
[11]; 140 g ai/ha
  pest or weed control at 140 g/ha: 90%
